The values that follow come from ChEMBL document CHEMBL1909046, “DrugMatrix in vitro pharmacology data”.

Each structure is given as a SMILES string.

Data set [1] has as its target Beta-3 adrenergic receptor (Homo sapiens, UniProt P13945). The data set is described as follows: DRUGMATRIX: Adrenergic beta3 radioligand binding (ligand: [125I] Cyanopindolol). As to conditions: hek293; Not Active = under 50% inhibition at 10 µM. Format: cell membranes, HEK293, Membrane.
The target in data set [2] is 5-hydroxytryptamine receptor 4 (Cavia porcellus, UniProt O70528). The class given is cell membranes, Dunkin-Hartley, Striatum, Membrane. Further: in other assays of this panel Not Active means under 50% inhibition at 10 µM.
5-hydroxytryptamine receptor 4, sequence (O70528 whole entry): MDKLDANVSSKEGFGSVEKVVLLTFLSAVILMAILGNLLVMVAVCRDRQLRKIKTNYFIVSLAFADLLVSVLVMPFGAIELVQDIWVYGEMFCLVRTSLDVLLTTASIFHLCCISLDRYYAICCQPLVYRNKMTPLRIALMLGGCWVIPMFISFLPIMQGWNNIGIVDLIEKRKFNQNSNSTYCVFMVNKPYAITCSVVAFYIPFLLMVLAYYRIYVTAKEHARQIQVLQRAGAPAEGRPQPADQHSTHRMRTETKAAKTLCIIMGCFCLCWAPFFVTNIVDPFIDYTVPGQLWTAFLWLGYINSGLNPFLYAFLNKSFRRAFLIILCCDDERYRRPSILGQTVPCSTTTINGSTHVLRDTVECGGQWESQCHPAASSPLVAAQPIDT
Data set [3] in a line: DRUGMATRIX: Sigma2 radioligand binding (ligand: [3H] Ifenprodil). Format: cell membranes, Rattus norvegicus, Wistar, Brain, Membrane. The following applies: Not Active = under 50% inhibition at 10 µM.
The target of another data set is T1, Substance-K receptor (Homo sapiens, UniProt P21452). Further: in other assays of this panel Not Active means under 50% inhibition at 10 µM.
T1 sequence (P21452 whole entry): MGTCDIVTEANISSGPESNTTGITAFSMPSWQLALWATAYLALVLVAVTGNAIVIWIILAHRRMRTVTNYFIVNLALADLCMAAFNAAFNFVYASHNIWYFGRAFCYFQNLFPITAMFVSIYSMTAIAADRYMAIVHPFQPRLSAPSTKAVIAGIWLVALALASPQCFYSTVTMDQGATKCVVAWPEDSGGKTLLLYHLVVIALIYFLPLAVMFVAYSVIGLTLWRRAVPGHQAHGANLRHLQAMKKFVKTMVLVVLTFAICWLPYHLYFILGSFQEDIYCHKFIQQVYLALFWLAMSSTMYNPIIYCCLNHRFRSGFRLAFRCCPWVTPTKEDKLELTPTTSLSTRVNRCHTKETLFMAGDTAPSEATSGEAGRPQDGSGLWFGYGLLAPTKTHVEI
The class given is cell membranes, CHO, Membrane. As to conditions: cho.

Data set [4] concerns the target C-C chemokine receptor type 2 (Homo sapiens, UniProt P41597). The class given is cell membranes, CHO-K1, Membrane. The following applies: cho-k1. Further: in other assays of this panel Not Active means under 50% inhibition at 10 µM.
Data set [5] addresses T2, C-C chemokine receptor type 4 (Homo sapiens, UniProt P51679).
T2 sequence (P51679 whole entry): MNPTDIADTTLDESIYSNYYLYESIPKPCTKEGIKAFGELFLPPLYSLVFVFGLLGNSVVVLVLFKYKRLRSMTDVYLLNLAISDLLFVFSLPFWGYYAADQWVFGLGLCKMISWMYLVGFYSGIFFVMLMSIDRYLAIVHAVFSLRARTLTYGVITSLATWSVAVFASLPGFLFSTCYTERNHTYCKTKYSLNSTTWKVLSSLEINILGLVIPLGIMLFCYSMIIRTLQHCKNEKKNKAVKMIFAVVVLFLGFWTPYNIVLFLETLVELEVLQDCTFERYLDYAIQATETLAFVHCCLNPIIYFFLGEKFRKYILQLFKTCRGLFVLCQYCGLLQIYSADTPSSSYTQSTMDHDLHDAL
The class given is cell membranes, Membrane. The following applies: chem-1.

Another data set concerns the target T3, D(4) dopamine receptor (Homo sapiens, UniProt P21917).
T3 sequence (P21917 whole entry): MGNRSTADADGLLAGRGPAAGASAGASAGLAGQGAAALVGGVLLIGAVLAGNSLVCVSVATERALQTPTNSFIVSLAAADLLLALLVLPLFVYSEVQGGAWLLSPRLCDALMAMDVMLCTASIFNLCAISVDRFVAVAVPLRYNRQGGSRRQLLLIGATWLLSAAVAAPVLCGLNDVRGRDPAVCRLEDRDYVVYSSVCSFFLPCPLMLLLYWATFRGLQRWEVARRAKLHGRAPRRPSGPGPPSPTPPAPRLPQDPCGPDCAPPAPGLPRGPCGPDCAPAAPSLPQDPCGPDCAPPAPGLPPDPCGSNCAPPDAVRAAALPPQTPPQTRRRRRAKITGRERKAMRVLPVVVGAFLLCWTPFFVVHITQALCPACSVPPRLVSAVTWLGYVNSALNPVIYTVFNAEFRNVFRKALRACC
The data set is described as follows: DRUGMATRIX: Dopamine D4.2 radioligand binding (ligand: [3H] Spiperone). Format: cell membranes, CHO-K1, Membrane. As to conditions: cho-k1; Not Active = under 50% inhibition at 10 µM.

Data set [6] has as its target Sodium-dependent dopamine transporter (Homo sapiens, UniProt Q01959). The data set is described as follows: DRUGMATRIX: Dopamine Transporter radioligand binding (ligand: [125I] RTI-55). The class given is cell membranes, CHO-K1, Membrane. As to conditions: cho-k1; Not Active = under 50% inhibition at 10 µM.
A short description of data set [7]: DRUGMATRIX: Glutamate, Kainate radioligand binding (ligand: [3H] Kainic acid). The class given is cell membranes, Rattus norvegicus, Wistar, Brain, Membrane. The following applies: Not Active = under 50% inhibition at 10 µM.
A short description of data set [8]: DRUGMATRIX: Glutamate, NMDA, Phencyclidine radioligand binding (ligand: [3H] TCP). The class given is cell membranes, Rattus norvegicus, Wistar, Cerebral cortex, Membrane. As to conditions: Not Active = under 50% inhibition at 10 µM.
A further data set has as its target Histamine H2 receptor (Homo sapiens, UniProt P25021). Format: cell membranes, CHO-K1, Membrane. As to conditions: cho-k1. Further: in other assays of this panel Not Active means under 50% inhibition at 10 µM.
The next data set concerns the target T4, Leukotriene C4 synthase (Cavia porcellus, UniProt A6XA80).
T4 sequence (A6XA80 whole entry): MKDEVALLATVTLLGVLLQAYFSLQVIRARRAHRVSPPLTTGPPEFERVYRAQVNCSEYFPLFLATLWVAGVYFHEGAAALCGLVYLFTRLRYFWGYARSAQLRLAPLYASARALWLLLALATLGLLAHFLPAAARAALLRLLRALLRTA
The data set is described as follows: biochemical. Format: tissue-based, Lung.

The target in data set [9] is T5, Muscarinic acetylcholine receptor M4 (Homo sapiens, UniProt P08173). Further: in other assays of this panel Not Active means under 50% inhibition at 10 µM.
T5 sequence (P08173 whole entry): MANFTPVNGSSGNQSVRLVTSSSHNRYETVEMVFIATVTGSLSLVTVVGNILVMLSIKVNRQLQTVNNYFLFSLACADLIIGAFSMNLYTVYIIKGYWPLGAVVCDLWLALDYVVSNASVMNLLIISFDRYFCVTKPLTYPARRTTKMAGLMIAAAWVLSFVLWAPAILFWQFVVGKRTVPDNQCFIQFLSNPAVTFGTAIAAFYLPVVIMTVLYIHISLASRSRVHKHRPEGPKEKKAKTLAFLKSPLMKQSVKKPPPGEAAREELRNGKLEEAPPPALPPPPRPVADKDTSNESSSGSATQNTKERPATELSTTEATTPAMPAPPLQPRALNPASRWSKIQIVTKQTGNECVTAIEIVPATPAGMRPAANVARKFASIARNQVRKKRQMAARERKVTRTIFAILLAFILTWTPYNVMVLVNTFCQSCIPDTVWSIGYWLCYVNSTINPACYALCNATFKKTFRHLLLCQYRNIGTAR
Format: cell membranes, CHO-K1, Membrane. The following applies: cho-k1.

Data set [10] is described as follows: DRUGMATRIX: Phosphodiesterase PDE3 enzyme inhibition (substrate: [3H]cAMP + cAMP). The class given is tissue-based, Homo sapiens. As to conditions: platelet; Not Active = under 50% inhibition at 10 µM.
Data set [11] concerns the target Tyrosine-protein kinase Fyn (Homo sapiens, UniProt P06241). The data set is described as follows: biochemical. The class given is cell-based, Insect cells. As to conditions: insect cells.
The nature of data set [12]: DRUGMATRIX: Purinergic P2X radioligand binding (ligand: [3H] alpha, beta-Methylene-ATP). As to conditions: Not Active = under 50% inhibition at 10 µM. The class given is cell membranes, Oryctolagus cuniculus, New Zealand albino, Urinary bladder, Membrane.
The target in the next data set is Cytochrome P450 2C19 (Homo sapiens, UniProt P33261). The following applies: bti-tn-5b1-4. Further: in other assays of this panel Not Active means under 50% inhibition at 10 µM.
Cytochrome P450 2C19, sequence (P33261 whole entry): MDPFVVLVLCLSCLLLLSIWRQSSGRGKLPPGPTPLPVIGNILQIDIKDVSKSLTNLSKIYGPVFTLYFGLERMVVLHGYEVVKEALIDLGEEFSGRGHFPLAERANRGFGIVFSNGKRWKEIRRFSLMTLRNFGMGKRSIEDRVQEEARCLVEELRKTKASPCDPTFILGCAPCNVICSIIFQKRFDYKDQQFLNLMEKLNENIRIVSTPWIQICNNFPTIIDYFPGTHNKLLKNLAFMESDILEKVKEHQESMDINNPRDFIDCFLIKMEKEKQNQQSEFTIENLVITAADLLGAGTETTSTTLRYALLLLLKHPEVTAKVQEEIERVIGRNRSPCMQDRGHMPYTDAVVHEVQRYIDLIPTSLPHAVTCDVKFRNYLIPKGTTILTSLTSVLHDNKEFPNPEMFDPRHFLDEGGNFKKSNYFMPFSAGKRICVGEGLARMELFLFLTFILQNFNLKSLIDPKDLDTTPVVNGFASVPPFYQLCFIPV

Beta-3 adrenergic receptor, sequence (P13945 whole entry): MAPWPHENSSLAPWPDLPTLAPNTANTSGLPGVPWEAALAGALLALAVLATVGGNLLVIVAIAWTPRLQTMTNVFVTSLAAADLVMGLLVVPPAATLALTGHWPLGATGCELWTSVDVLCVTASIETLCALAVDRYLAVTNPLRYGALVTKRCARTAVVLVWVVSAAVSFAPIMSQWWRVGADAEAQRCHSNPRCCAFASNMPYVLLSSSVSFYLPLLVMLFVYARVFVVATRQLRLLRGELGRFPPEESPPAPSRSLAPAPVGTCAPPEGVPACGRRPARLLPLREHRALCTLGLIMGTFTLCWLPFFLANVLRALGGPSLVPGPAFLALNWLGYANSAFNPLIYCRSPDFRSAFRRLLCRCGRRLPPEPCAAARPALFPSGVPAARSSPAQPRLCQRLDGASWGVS
Histamine H2 receptor, sequence (P25021 whole entry): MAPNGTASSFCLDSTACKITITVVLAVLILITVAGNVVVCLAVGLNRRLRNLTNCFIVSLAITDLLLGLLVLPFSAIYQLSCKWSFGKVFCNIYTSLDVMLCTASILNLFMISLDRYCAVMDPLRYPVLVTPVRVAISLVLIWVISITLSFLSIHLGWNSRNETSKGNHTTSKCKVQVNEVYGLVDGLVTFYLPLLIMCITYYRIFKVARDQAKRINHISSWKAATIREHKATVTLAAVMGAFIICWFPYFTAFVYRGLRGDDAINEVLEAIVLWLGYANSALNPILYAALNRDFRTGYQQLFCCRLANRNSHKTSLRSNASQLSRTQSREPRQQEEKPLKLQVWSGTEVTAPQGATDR
Sodium-dependent dopamine transporter, sequence (Q01959 whole entry): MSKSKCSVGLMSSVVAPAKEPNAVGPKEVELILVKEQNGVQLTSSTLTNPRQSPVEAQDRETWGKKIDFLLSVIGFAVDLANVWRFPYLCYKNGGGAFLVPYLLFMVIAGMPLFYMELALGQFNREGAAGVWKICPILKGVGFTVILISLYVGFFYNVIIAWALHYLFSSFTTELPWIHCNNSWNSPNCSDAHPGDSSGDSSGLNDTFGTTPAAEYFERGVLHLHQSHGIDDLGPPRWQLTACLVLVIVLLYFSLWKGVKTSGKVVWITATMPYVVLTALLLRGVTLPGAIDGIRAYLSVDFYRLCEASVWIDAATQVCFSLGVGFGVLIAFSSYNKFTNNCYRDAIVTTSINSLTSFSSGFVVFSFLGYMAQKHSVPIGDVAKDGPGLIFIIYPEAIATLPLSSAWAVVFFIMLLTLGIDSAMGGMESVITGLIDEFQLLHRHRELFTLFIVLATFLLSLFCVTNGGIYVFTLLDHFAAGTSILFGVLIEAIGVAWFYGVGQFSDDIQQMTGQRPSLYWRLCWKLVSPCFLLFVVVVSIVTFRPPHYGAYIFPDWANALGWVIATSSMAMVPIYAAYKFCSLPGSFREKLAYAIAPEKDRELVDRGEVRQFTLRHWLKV
C-C chemokine receptor type 2, sequence (P41597 whole entry): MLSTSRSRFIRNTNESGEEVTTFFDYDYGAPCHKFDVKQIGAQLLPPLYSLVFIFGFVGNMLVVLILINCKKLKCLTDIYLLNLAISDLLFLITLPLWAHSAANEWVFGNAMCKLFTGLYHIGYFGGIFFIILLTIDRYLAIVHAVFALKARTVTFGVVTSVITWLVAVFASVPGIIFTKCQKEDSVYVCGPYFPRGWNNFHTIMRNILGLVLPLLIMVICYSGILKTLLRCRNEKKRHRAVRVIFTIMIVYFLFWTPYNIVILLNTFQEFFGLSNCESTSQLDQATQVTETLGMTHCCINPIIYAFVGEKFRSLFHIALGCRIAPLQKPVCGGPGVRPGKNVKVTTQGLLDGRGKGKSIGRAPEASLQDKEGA
Tyrosine-protein kinase Fyn, sequence (P06241 whole entry): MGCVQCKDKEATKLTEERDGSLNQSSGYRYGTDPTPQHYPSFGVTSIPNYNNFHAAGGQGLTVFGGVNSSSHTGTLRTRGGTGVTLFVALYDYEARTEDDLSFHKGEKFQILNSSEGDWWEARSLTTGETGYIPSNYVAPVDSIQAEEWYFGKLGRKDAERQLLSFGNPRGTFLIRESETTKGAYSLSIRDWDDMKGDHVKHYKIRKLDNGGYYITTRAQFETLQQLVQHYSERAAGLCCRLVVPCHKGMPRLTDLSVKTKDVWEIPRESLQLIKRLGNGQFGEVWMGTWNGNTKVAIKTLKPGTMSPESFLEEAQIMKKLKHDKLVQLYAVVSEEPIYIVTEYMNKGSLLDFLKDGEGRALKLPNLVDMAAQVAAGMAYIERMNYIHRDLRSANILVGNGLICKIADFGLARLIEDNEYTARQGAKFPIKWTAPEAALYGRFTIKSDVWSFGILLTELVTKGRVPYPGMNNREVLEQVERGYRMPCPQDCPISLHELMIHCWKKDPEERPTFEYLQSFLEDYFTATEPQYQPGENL

The term IC50 denotes the concentration that inhibits the measured activity by half. Usually Ki stands for the equilibrium dissociation constant of an inhibitor or competing ligand from its target. For `Cc1ccccc1N1CCN(CCc2nnc3n2CCCC3)CC1` [DAPIPRAZOLE], the IC50 result (in data set [1]; in data set [2]; in data set [3]; against Substance-K receptor; in data set [4]; in data set [5]) was “Not Active” each time. For the same molecule, the half-inhibitory concentration (IC50) entry (on D(4) dopamine receptor; in [6]; in data set [7]; in data set [8]; against Histamine H2 receptor; against Leukotriene C4 synthase) was “Not Active” in each case. Further, the concentration for half-maximal inhibition (IC50) result (in data set [9]; in [10]; in [11]; in data set [12]; on Cytochrome P450 2C19) was “Not Active” in each case. The Ki result (in data set [3]; in [7]; in data set [8]; in [10]; in data set [12]; on Cytochrome P450 2C19) was “Not Active” throughout.

As to `CC1=Nc2ccc(Cl)cc2S(=O)(=O)N1` [DIAZOXIDE], the half-maximal inhibitory concentration (IC50) entry (in [1]; in [2]; in [3]; against Substance-K receptor; in data set [4]; in [5]) was “Not Active” in each case. In addition, the IC50 entry (on D(4) dopamine receptor; in data set [6]; in data set [7]; in data set [8]; against Histamine H2 receptor; against Leukotriene C4 synthase) was “Not Active” throughout. Also, the 50% inhibitory concentration (IC50) entry (in data set [9]; in data set [10]; in [11]; in data set [12]; against Cytochrome P450 2C19) was “Not Active” in each case. In addition, the inhibition constant Ki result (in data set [3]; in [7]; in data set [8]; in data set [10]; in [12]; on Cytochrome P450 2C19) was “Not Active” each time.

Take `CC(=O)OCC(=O)[C@@]1(OC(C)=O)[C@@H](C)C[C@H]2[C@@H]3C[C@H](F)C4=CC(=O)C=C[C@]4(C)[C@@]3(F)[C@@H](O)C[C@@]21C` [DIFLORASONE DIACETATE]: the IC50 entry (in [1]; in [2]; in data set [3]; at Substance-K receptor; in data set [4]; in [5]) was “Not Active” throughout. The IC50 result (on D(4) dopamine receptor; in data set [6]; in data set [7]; in data set [8]; against Histamine H2 receptor; against Leukotriene C4 synthase) was “Not Active” throughout. The concentration for half-maximal inhibition (IC50) result (in [9]; in data set [10]; in data set [11]; in data set [12]; against Cytochrome P450 2C19) was “Not Active” in each case. The Ki result (in data set [3]; in data set [7]; in [8]; in data set [10]; in data set [12]; on Cytochrome P450 2C19) was “Not Active” in each case.

Take `COc1ccc([C@@H]2Sc3ccccc3N(CCN(C)C)C(=O)[C@@H]2OC(C)=O)cc1` [DILTIAZEM]: the IC50 entry (in data set [1]; in [2]; in data set [3]; on Substance-K receptor; in data set [4]; in data set [5]) was “Not Active” in each case. In addition, the concentration for half-maximal inhibition (IC50) entry (at D(4) dopamine receptor; in data set [6]; in data set [7]; in data set [8]; at Histamine H2 receptor; at Leukotriene C4 synthase) was “Not Active” each time. The half-maximal inhibitory concentration (IC50) entry (in [9]; in data set [10]; in data set [11]; in [12]; at Cytochrome P450 2C19) was “Not Active” throughout. Also, the Ki entry (in data set [3]; in data set [7]; in data set [8]; in data set [10]; in [12]; at Cytochrome P450 2C19) was “Not Active” throughout.

Take `CCc1ccc(C(=O)C(C)CN2CCCCC2)cc1` (stereo not given) [EPERISONE]: the half-inhibitory concentration (IC50) result in data set [1] is “Not Active”; in data set [2], “Not Active”; in data set [3] (read-out: IC50), 1060 nM; against Substance-K receptor it was “Not Active”; in data set [4] it was “Not Active”; in data set [5] it was “Not Active”. For the same molecule, the half-maximal inhibitory concentration (IC50) entry (at D(4) dopamine receptor; in data set [6]; in data set [7]; in [8]; against Histamine H2 receptor; on Leukotriene C4 synthase) was “Not Active” in each case. Moreover, the concentration for half-maximal inhibition (IC50) entry (in [9]; in [10]; in [11]; in data set [12]; on Cytochrome P450 2C19) was “Not Active” each time. The Ki in data set [3] (read-out: Ki) is 655 nM; in data set [7], “Not Active”; in [8], “Not Active”; in [10], “Not Active”; in data set [12] it was “Not Active”; at Cytochrome P450 2C19, “Not Active”.
